The target of the experiment is T1, human LMPTP-A (Homo sapiens, UniProt P24666).
T1 sequence (P24666 1-158): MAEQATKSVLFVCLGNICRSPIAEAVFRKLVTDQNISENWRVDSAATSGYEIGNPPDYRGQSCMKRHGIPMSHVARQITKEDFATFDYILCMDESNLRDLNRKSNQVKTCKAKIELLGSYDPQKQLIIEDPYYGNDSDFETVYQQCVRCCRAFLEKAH
The experiment in a line: Enzyme Assay of Inhibition of LMPTP-A. Type of experiment: biochemical. The note with it: phosphatase assay, OMFP or pNPP substrate, 50 mM Bis-Tris pH 6.0, 37° C. How it is done:
Phosphatase assays were performed in buffer containing 50 mM Bis-Tris, pH 6.0, 1 mM DTT and 0.01% Triton X-100 at 37° C. For assays conducted with 3-O-methylfluorescein phosphate (OMFP) as substrate, fluorescence was monitored continuously at λex=485 and λem=525 nm. For assays conducted with para-nitrophenylphosphate (pNPP) as substrate, the reaction was stopped by addition of 2× reaction volume of 1 M NaOH, and absorbance was measured at 405 nm. IC50 values of compounds disclosed herein were determined from plots of inhibitor concentration versus percentage of enzyme activity. For inhibitor selectivity assays, each PTP was incubated with either 0.4 mM OMFP or 5 mM pNPP in the presence of 40 μM compound or DMSO. […] For the inhibitor reversibility assay, 50 nM human LMPTP-A was pre-incubated with 10 μM of compound disclosed herein or DMSO for 5 min. The enzyme was diluted 100× in phosphatase assay buffer containing 0.4 mM OMFP and fluorescence was measured at the indicated time points.

Some results are limits rather than exact numbers.

For the molecule `Nc1ncn(Cc2c(F)cccc2F)c2ncnc1-2`, the IC50 lay within 1000 to 20000 nM.
Regarding “3-[(2,6-dichlorophenyl)methyl]-8-[(4-chlorophenyl)methyl]-3-hydropurine-6-ylamine”, the IC50 is at most 1000 nM.
The molecule “8-[(1E)-2-(4-fluorophenyl)vinyl]-3-[(2,6-dichlorophenyl)methyl]-3-hydropurine-6-ylamine” came in with a half-maximal inhibitory concentration (IC50) of at most 1000 nM.
For the molecule `CC(=O)c1ccc(Nc2ncn(Cc3c(Cl)cccc3Cl)c3ncnc2-3)cc1` [1-Acetyl-4-({3-[(2,6-dichlorophenyl)methyl](3-hydropurin-6-yl)}amino)benzene], the IC50 fell in the range of 1000 to 20000 nM.
To `COC(=O)c1cccc(Cl)c1Cn1cnc(N)c2ncnc1-2` [2-(6-Amino-purin-3-ylmethyl)-3-chloro-benzoic acid methyl ester] belongs at most 1000 nM; to `N#Cc1ccccc1Cn1cnc(NCc2ccco2)c2ncnc1-2` [2-((6-((Furan-2-ylmethyl)amino)-3H-purin-3-yl)methyl)benzonitrile], at least 20000 nM.
To `NC(=O)c1cccc(Cl)c1Cn1cnc(N)c2ncnc1-2` [2-((6-amino-3H-purin-3-yl)methyl)-3-chlorobenzamide] belongs at most 1000 nM.
`Nc1ncn(Cc2c(Cl)cccc2C(=O)O)c2ncnc1-2` [2-((6-amino-3H-purin-3-yl)methyl)-3-chlorobenzoic acid] showed a 50% inhibitory concentration (IC50) of 1000 to 20000 nM.
Molecule `N#Cc1cccc(Cl)c1Cn1cnc(N)c2ncnc1-2` [2-((6-amino-3H-purin-3-yl)methyl)-3-chlorobenzonitrile] had an IC50 of at most 1000 nM.
Take `Oc1ccccc1Nc1ncn(Cc2c(Cl)cccc2Cl)c2ncnc1-2` [2-({3-[(2,6-Dichlorophenyl)methyl]-3-hydropurin-6-yl}amino)phenol]: the 50% inhibitory concentration (IC50) was in the range of 1000 to 20000 nM.
Consider `OCCNc1ncn(Cc2c(Cl)cccc2Cl)c2ncnc1-2` [2-[3-(2,6-Dichloro-benzyl)-3H-purin-6-ylamino]-ethanol], for which the half-maximal inhibitory concentration (IC50) fell in the range of 1000 to 20000 nM.
`N#Cc1ccccc1-c1nc2c(N)ncn(Cc3c(Cl)cccc3Cl)c-2n1` [2-{6-Amino-3-[(2,6-dichlorophenyl)methyl]-3-hydropurin-8-yl}benzenecarbonitrile] showed a concentration for half-maximal inhibition (IC50) of at most 1000 nM.
Next, `Nc1ncn(Cc2c(F)ccc(F)c2F)c2ncnc1-2` [3-(2,3,6-Trifluoro-benzyl)-3H-purin-6-ylamine]: 1000 to 20000 nM; `Nc1ncn(Cc2cccc(Cl)c2Cl)c2ncnc1-2` [3-(2,3-Dichloro-benzyl)-3H-purin-6-ylamine]: 1000 to 20000 nM.
`Clc1cccc(Cn2cnc(NCc3ccco3)c3ncnc2-3)c1Cl` [3-(2,3-dichlorobenzyl)-N-(furan-2-ylmethyl)-3H-purin-6-amine] showed an IC50 of 1000 to 20000 nM.
`Nc1ncn(Cc2ccc(Cl)cc2Cl)c2ncnc1-2` [3-(2,4-Dichloro-benzyl)-3H-purin-6-ylamine]: the IC50 is 1000 to 20000 nM.
The molecule `Nc1ncn(Cc2ccc(F)cc2F)c2ncnc1-2` [3-(2,4-difluorobenzyl)-3H-purin-6-amine] had an IC50 of 1000 to 20000 nM.
`Nc1ncn(Cc2cc(Cl)ccc2Cl)c2ncnc1-2` [3-(2,5-Dichloro-benzyl)-3H-purin-6-ylamine]: the IC50 lay within 1000 to 20000 nM.
To `Clc1cccc(Cl)c1Cn1cnc(N2CCOCC2)c2ncnc1-2` [3-(2,6-Dichloro-benzyl)-6-morpholin-4-yl-3H-purine] belongs at least 20000 nM; to `Clc1cccc(Cl)c1Cn1cnc(N2CCCCC2)c2ncnc1-2` [3-(2,6-Dichloro-benzyl)-6-piperidin-1-yl-3H-purine], at least 20000 nM; to `Clc1cccc(Cl)c1Cn1cnc(N2CCCC2)c2ncnc1-2` [3-(2,6-Dichloro-benzyl)-6-pyrrolidin-1-yl-3H-purine], at least 20000 nM.
`Nc1ncn(Cc2c(Cl)cccc2Cl)c2nc(C3=CCNCC3)nc1-2` [3-(2,6-Dichloro-benzyl)-8-(1,2,3,6-tetrahydro-pyridin-4-yl)-3H-purin-6-ylamine]: the IC50 was at most 1000 nM.
`FC(F)(F)Oc1cccc(Nc2ncn(Cc3c(Cl)cccc3Cl)c3ncnc2-3)c1` [3-(2,6-Dichlorobenzyl)-N-(3-(trifluoromethoxy)phenyl)-3H-purin-6-amine] came in with an IC50 of 1000 to 20000 nM.
As to `FC(F)Oc1ccc(Nc2ncn(Cc3c(Cl)cccc3Cl)c3ncnc2-3)cc1` [3-(2,6-Dichlorobenzyl)-N-(4-(difluoromethoxy)phenyl)-3H-purin-6-amine], the IC50 fell in the range of 1000 to 20000 nM.
In turn, `COc1ccc(Nc2ncn(Cc3c(Cl)cccc3Cl)c3ncnc2-3)cc1` [3-(2,6-Dichlorobenzyl)-N-(4-methoxyphenyl)-3H-purin-6-amine] had a half-inhibitory concentration (IC50) of 1000 to 20000 nM.
Next, `Cc1cccc(C)c1Cn1cnc(NCc2ccco2)c2ncnc1-2` [3-(2,6-Dimethylbenzyl)-n-(furan-2-ylmethyl)-3h-purin-6-amine]: 1000 to 20000 nM.
`Nc1ncn(Cc2c(Br)cccc2Br)c2ncnc1-2` [3-(2,6-dibromobenzyl)-3H-purin-6-amine]: the concentration for half-maximal inhibition (IC50) was at most 1000 nM.
For the molecule `Cc1noc(C)c1-c1nc2c(N)ncn(Cc3c(Cl)cccc3Cl)c-2n1` [3-(2,6-dichlorobenzyl)-8-(3,5-dimethylisoxazol-4-yl)-3H-purin-6-amine], the IC50 was at most 1000 nM.
In turn, `Nc1ncn(Cc2c(Cl)cccc2Cl)c2nc(C3=CCOCC3)nc1-2` [3-(2,6-dichlorobenzyl)-8-(3,6-dihydro-2H-pyran-4-yl)-3H-purin-6-amine] yielded a 50% inhibitory concentration (IC50) of at most 1000 nM.
As to `COc1ccc(CNc2ncn(Cc3c(Cl)cccc3Cl)c3ncnc2-3)c(OC)c1` [3-(2,6-dichlorobenzyl)-N-(2,4-dimethoxybenzyl)-3H-purin-6-amine], the IC50 is 1000 to 20000 nM.
Consider `FC(F)Oc1ccccc1Nc1ncn(Cc2c(Cl)cccc2Cl)c2ncnc1-2` [3-(2,6-dichlorobenzyl)-N-(2-(difluoromethoxy)plienyl)-3H-purin-6-amine], for which the 50% inhibitory concentration (IC50) fell in the range of 1000 to 20000 nM.
In turn, `FC(F)Oc1cccc(Nc2ncn(Cc3c(Cl)cccc3Cl)c3ncnc2-3)c1` [3-(2,6-dichlorobenzyl)-N-(3-(difluoromethoxy)phenyl)-3H-purin-6-amine] yielded an IC50 of 1000 to 20000 nM.
To `FC(F)(F)c1cccc(Nc2ncn(Cc3c(Cl)cccc3Cl)c3ncnc2-3)c1` [3-(2,6-dichlorobenzyl)-N-(3-(trifluoromethyl)phenyl)-3H-purin-6-amine] belongs 1000 to 20000 nM.
The molecule `FC(F)(F)c1ccc(Nc2ncn(Cc3c(Cl)cccc3Cl)c3ncnc2-3)cc1` [3-(2,6-dichlorobenzyl)-N-(4-(trifluoromethyl)phenyl)-3H-purin-6-amine] had a 50% inhibitory concentration (IC50) of 1000 to 20000 nM.
Next, `Cc1cccc(C)c1Cn1cnc(N)c2ncnc1-2` [3-(2,6-dimethylbenzyl)-3H-purin-6-amine]: 1000 to 20000 nM.
As to `Nc1cccc(Cl)c1Cn1cnc(N)c2ncnc1-2` [3-(2-Amino-6-chlorobenzyl)-3H-purin-6-amine], the concentration for half-maximal inhibition (IC50) was 1000 to 20000 nM.
The molecule `Nc1ncn(Cc2ccccc2Br)c2ncnc1-2` [3-(2-Bromo-benzyl)-3H-purin-6-ylamine] returned an IC50 of 1000 to 20000 nM.
The molecule `Nc1ncn(Cc2c(F)cccc2Cl)c2ncnc1-2` [3-(2-Chloro-6-fluoro-benzyl)-3H-purin-6-ylamine] gave an IC50 of at most 1000 nM.
In the case of `Nc1ncn(Cc2c(Cl)cccc2I)c2ncnc1-2` [3-(2-Chloro-6-iodo-benzyl)-3H-purin-6-ylamine], the half-inhibitory concentration (IC50) is at most 1000 nM.
The molecule `Nc1ncn(Cc2c(Cl)cccc2[N+](=O)[O-])c2ncnc1-2` [3-(2-Chloro-6-nitrobenzyl)-3H-purin-6-amine] returned a concentration for half-maximal inhibition (IC50) of at most 1000 nM.
In turn, `Nc1ncn(Cc2ccccc2Cl)c2ncnc1-2` [3-(2-Chloro-benzyl)-3H-purin-6-ylamine] returned an IC50 of 1000 to 20000 nM.
To `Nc1ncn(Cc2c(F)cccc2I)c2ncnc1-2` [3-(2-Fluoro-6-iodo-benzyl)-3H-purin-6-ylamine] belongs at most 1000 nM; to `Nc1ncn(Cc2ccccc2F)c2ncnc1-2` [3-(2-Fluoro-benzyl)-3H-purin-6-ylamine], 1000 to 20000 nM.
`Cc1ccccc1Cn1cnc(N)c2ncnc1-2` [3-(2-Methyl-benzyl)-3H-purin-6-ylamine] displayed an IC50 of 1000 to 20000 nM.
The molecule `Nc1ncn(Cc2c(Cl)cccc2Br)c2ncnc1-2` [3-(2-bromo-6-chlorobenzyl)-3H-purin-6-amine] had an IC50 of at most 1000 nM.
As for `COc1cccc(Cl)c1Cn1cnc(N)c2ncnc1-2` [3-(2-chloro-6-methoxybenzyl)-3H-purin-6-amine], the IC50 lay within 1000 to 20000 nM.
To `Cc1cccc(Cl)c1Cn1cnc(N)c2ncnc1-2` [3-(2-chloro-6-methylbenzyl)-3H-purin-6-amine] belongs at most 1000 nM.
The molecule `Nc1ncn(Cc2cccc(F)c2)c2ncnc1-2` [3-(3-Fluoro-benzyl)-3H-purin-6-ylamine] showed a half-inhibitory concentration (IC50) of 1000 to 20000 nM.
Molecule `Nc1ncn(Cc2cccc(Cl)c2)c2ncnc1-2` [3-(3-chlorobenzyl)-3H-purin-6-amine] showed an IC50 of at least 20000 nM.
The molecule `Nc1ncn(Cc2ccc(C(F)(F)F)cc2)c2ncnc1-2` [3-(4-(trifluoromethyl)benzyl)-3H-purin-6-amine] registered an IC50 of 1000 to 20000 nM.
Next, `Nc1ncn(Cc2ccc(Br)cc2)c2ncnc1-2` [3-(4-Bromo-benzyl)-3H-purin-6-ylamine]: 1000 to 20000 nM.
For the molecule `Nc1ncn(Cc2ccc(Cl)cc2)c2ncnc1-2` [3-(4-Chloro-benzyl)-3H-purin-6-ylamine], the IC50 is at least 20000 nM.
To `COc1ccc(Cn2cnc(N)c3ncnc2-3)cc1` [3-(4-Methoxy-benzyl)-3H-purin-6-ylamine] belongs 1000 to 20000 nM.

These data come from patent US20200338084A1, “INHIBITORS OF LOW MOLECULAR WEIGHT PROTEIN TYROSINE PHOSPHATASE (LMPTP) AND USES THEREOF” (Sanford Burnham Prebys Medical Discovery Institute, priority 2018, published 2020).
